# Measurements as given in patent US20250019385A1, “SPIROCYCLIC ANNULATED 2-AMINO-3-CYANO THIOPHENES AND DERIVATIVES FOR THE TREATMENT OF CANCER” (Boehringer Ingelheim International GmbH, priority 2023, published 2025).
# Tested on: NCI-H358 cells
# Assay: NCI-H358 CTG proliferation assay (120 h) (NSCLC, G12C)
# Assay type: cell-based
# Settings: not given
# Method: (§1) NCI-H358 cells (ATCC No. CRL-5807) are dispensed into black 384-well plates, flat and clear bottom (Greiner, PNr. 781091) at a density of 200 cells per well in 60 μl RPMI-1640 ATCC-Formulation (Gibco #A10491)+10% FCS (fetal calf serum). Cells are incubated overnight at 37° C. in a humidified tissue culture incubator at 5% CO2. Compounds (10 mM stock in DMSO) are added at logarithmic dose series using the ECHO acoustic liquid handler system (Beckman Coulter), normalizing for added DMSO and including DMSO controls. All compound treatments are performed in technical duplicates. For the TO time point measurement, untreated cells are analyzed at the time of compound addition. Plates are incubated for 120 h, and cell viability is measured using CellTiter-Glo luminescent cell viability reagent (Promega product code G7570). Viability (stated as percent of control) is defined as relative luminescence units RLU of each well divided by the RLU of cells in DMSO controls. IC50 values are determined from viability measurements by non-linear regression using a four-parameter model.
# (§2) IC50 values of representative compounds according to the invention measured with these assays in the indicated cell lines are presented in Table 46.
row,SMILES,IC50
1,C[C@H](Oc1nc(-c2noc3c2CCC[C@@]32CCCc3sc(N)c(C#N)c32)nc2c1CC[C@]21CNCCO1)[C@@H]1C[C@@H](F)CN1C [II-20],59 nM

# Same assay, conditions: Homo sapiens
row,SMILES,IC50
1,CO[C@H]1CCN(C)[C@@H]1[C@H](C)Oc1nc(-c2onc3c2CCC[C@@]32CCCc3sc(N)c(C#N)c32)nc2c1CN(C1COC1)C[C@]21CCOC1 [I-57],4 nM
2,C[C@H](Oc1nc(-c2onc3c2CCC[C@@]32CCCc3sc(N)c(C#N)c32)nc2c1COC[C@]21CCOC1)[C@@H]1CCCN1C [I-54],3 nM
3,Cc1nn([C@@H]2CCOC2)c2nc(-c3onc4c3CCC[C@@]43CCCc4sc(N)c(C#N)c43)nc(O[C@@H](C)[C@@H]3CCCN3C)c12 [I-42],21 nM
4,CCn1c(=O)n([C@@H]2CCCOC2)c2nc(-c3onc4c3CCC[C@@]43CCCc4sc(N)c(C#N)c43)nc(O[C@@H](C)C34CCCN3CCC4)c21 [I-36],38 nM

# Tested on: AsPC-1 cells
# Assay: AsPC-1 CTG proliferation assay (120 h) (pancreatic cancer, G12D)
# Assay type: cell-based
# Settings: not given
# Method: as §1, with “AsPC-1” for “NCI-H358”, “CRL-1682)” for “No. CRL-5807)”, “500” for “200”, “RPMI” for “RPMI-1640”, “(PAN P04-18047)+10%” for “(Gibco #A10491)+10%”, “serum, HyClone, SH30084.03).” for “serum).”
# as §2
row,SMILES,IC50
1,C[C@H](Oc1nc(-c2noc3c2CCC[C@@]32CCCc3sc(N)c(C#N)c32)nc2c1CC[C@]21CNCCO1)[C@@H]1C[C@@H](F)CN1C [II-20],215 nM

# Same assay, conditions: Homo sapiens, ASPC1
row,SMILES,IC50
1,CO[C@H]1CCN(C)[C@@H]1[C@H](C)Oc1nc(-c2onc3c2CCC[C@@]32CCCc3sc(N)c(C#N)c32)nc2c1CN(C1COC1)C[C@]21CCOC1 [I-57],129 nM
2,C[C@H](Oc1nc(-c2onc3c2CCC[C@@]32CCCc3sc(N)c(C#N)c32)nc2c1COC[C@]21CCOC1)[C@@H]1CCCN1C [I-54],76 nM
3,Cc1nn([C@@H]2CCOC2)c2nc(-c3onc4c3CCC[C@@]43CCCc4sc(N)c(C#N)c43)nc(O[C@@H](C)[C@@H]3CCCN3C)c12 [I-42],1180 nM
4,CCn1c(=O)n([C@@H]2CCCOC2)c2nc(-c3onc4c3CCC[C@@]43CCCc4sc(N)c(C#N)c43)nc(O[C@@H](C)C34CCCN3CCC4)c21 [I-36],1100 nM

# Tested on: SK-CO-1 cells
# Assay: SK-CO-1 CTG proliferation assay (120 h) (CRC, G12V)
# Assay type: cell-based
# Settings: not given
# Method: as §1, with “SK—CO-1” for “NCI-H358”, “HTB-39)” for “No. CRL-5807)”, “500” for “200”, “EMEM (Sigma M5650)+10%” for “RPMI-1640 ATCC-Formulation (Gibco #A10491)+10%”, “serum, HyClone, SH30084.03).” for “serum).”
# as §2
row,SMILES,IC50
1,C[C@H](Oc1nc(-c2noc3c2CCC[C@@]32CCCc3sc(N)c(C#N)c32)nc2c1CC[C@]21CNCCO1)[C@@H]1C[C@@H](F)CN1C [II-20],148 nM

# Same assay, conditions: Homo sapiens
row,SMILES,IC50
1,CO[C@H]1CCN(C)[C@@H]1[C@H](C)Oc1nc(-c2onc3c2CCC[C@@]32CCCc3sc(N)c(C#N)c32)nc2c1CN(C1COC1)C[C@]21CCOC1 [I-57],7 nM
2,C[C@H](Oc1nc(-c2onc3c2CCC[C@@]32CCCc3sc(N)c(C#N)c32)nc2c1COC[C@]21CCOC1)[C@@H]1CCCN1C [I-54],3 nM
3,Cc1nn([C@@H]2CCOC2)c2nc(-c3onc4c3CCC[C@@]43CCCc4sc(N)c(C#N)c43)nc(O[C@@H](C)[C@@H]3CCCN3C)c12 [I-42],46 nM
4,CCn1c(=O)n([C@@H]2CCCOC2)c2nc(-c3onc4c3CCC[C@@]43CCCc4sc(N)c(C#N)c43)nc(O[C@@H](C)C34CCCN3CCC4)c21 [I-36],14 nM

# Tested on: NCI-H727 cells
# Assay: NCI-H727 CTG proliferation assay (120 h) (lung cancer, G12V)
# Assay type: cell-based
# Settings: Homo sapiens
# Method: as §1, with “NCI-H727” for “NCI-H358”, “CRL-5815)” for “CRL-5807)”, “500” for “200”, “RPMI” for “RPMI-1640”, “(PAN P04-18047)+10%” for “(Gibco #A10491)+10%”, “serum, HyClone, SH30084.03).” for “serum).”
# as §2
row,SMILES,IC50
1,CO[C@H]1CCN(C)[C@@H]1[C@H](C)Oc1nc(-c2onc3c2CCC[C@@]32CCCc3sc(N)c(C#N)c32)nc2c1CN(C1COC1)C[C@]21CCOC1 [I-57],3 nM
2,C[C@H](Oc1nc(-c2onc3c2CCC[C@@]32CCCc3sc(N)c(C#N)c32)nc2c1COC[C@]21CCOC1)[C@@H]1CCCN1C [I-54],2 nM
3,Cc1nn([C@@H]2CCOC2)c2nc(-c3onc4c3CCC[C@@]43CCCc4sc(N)c(C#N)c43)nc(O[C@@H](C)[C@@H]3CCCN3C)c12 [I-42],39 nM
4,CCn1c(=O)n([C@@H]2CCCOC2)c2nc(-c3onc4c3CCC[C@@]43CCCc4sc(N)c(C#N)c43)nc(O[C@@H](C)C34CCCN3CCC4)c21 [I-36],21 nM

# Tested on: not listed separately
# Assay: Metabolic (microsomal) stability assay, human liver microsomes (HLM)
# Assay type: in vitro ADME
# Settings: 1 μM test compound, predicted clearance as percent of liver blood flow
# Method: The metabolic degradation of the test compound is assayed at 37° C. with pooled liver microsomes (mouse (MLM), rat (RLM) or human (HLM)). The final incubation volume of 48 μL per time point contains TRIS buffer (pH 7.5; 0.1 M), magnesium chloride (6.5 mM), microsomal protein (0.5 mg/mL for mouse/rat, 1 mg/mL for human specimens) and the test compound at a final concentration of 1 μM. Following a short preincubation period at 37° C., the reactions are initiated by addition of 12 μL beta-nicotinamide adenine dinucleotide phosphate, reduced form (NADPH, 10 mM) and terminated by transferring an aliquot into solvent after different time points (0, 5, 15, 30, 60 min). Additionally, the NADPH-independent degradation is monitored in incubations without NADPH, terminated at the last time point by addition of acetonitrile. The quenched incubations are pelleted by centrifugation (4,000 rpm, 15 min). An aliquot of the supernatant is assayed by LC-MS/MS to quantify the concentration of parent compound in the individual samples.
# In vitro intrinsic clearance (CLint,in vitro) is calculated from the time course of the disappearance of the test drug during the microsomal incubation. Each plot is fitted to the first-order elimination rate constant as C(t)=C0*exp(−ke*t), where C(t) and C0 are the concentration of unchanged test drug at incubation time t and that at preincubation and ke is the disappearance rate constant of the unchanged drug. Subsequently, CLint, in vitro (μL min^−1·amount protein) values are converted to predicted CLint,in vivo (mL min^−1·kg^−1) from incubation parameters according to the equation CLint, in vivo=CLint, in vitro×(incubation volume (mL)/amount protein (mg))×(amount protein (mg)/g liver tissue)×(liver weight/body wt.).
# For better across species comparison the predicted clearance is expressed as percent of the liver blood flow [% QH] (mL min^−1·kg^−1) in the individual species. In general, high stability (corresponding to low % QH) of the compounds across species is desired.
row,SMILES,HLM QH
1,CO[C@H]1CCN(C)[C@@H]1[C@H](C)Oc1nc(-c2onc3c2CCC[C@@]32CCCc3sc(N)c(C#N)c32)nc2c1CN(C1COC1)C[C@]21CCOC1 [I-57],61%
2,C[C@H](Oc1nc(-c2onc3c2CCC[C@@]32CCCc3sc(N)c(C#N)c32)nc2c1COC[C@]21CCOC1)[C@@H]1CCCN1C [I-54],31%
3,Cc1nn([C@@H]2CCOC2)c2nc(-c3onc4c3CCC[C@@]43CCCc4sc(N)c(C#N)c43)nc(O[C@@H](C)[C@@H]3CCCN3C)c12 [I-42],36%
4,CCn1c(=O)n([C@@H]2CCCOC2)c2nc(-c3onc4c3CCC[C@@]43CCCc4sc(N)c(C#N)c43)nc(O[C@@H](C)C34CCCN3CCC4)c21 [I-36],37%
5,C[C@H](Oc1nc(-c2noc3c2CCC[C@@]32CCCc3sc(N)c(C#N)c32)nc2c1CC[C@]21CNCCO1)[C@@H]1C[C@@H](F)CN1C [II-20],36%
